Test results reported in patent US20240287082A1, “NEW BENZODIAZEPINE DERIVATIVES AS GABA A GAMMA1 PAM” (Hoffmann-La Roche Inc., priority 2021, published 2024).
Like-named read-outs stand apart in the source and are kept apart here.

Legend:
[1] = molecular target: human GABAA α1β2γ1 receptor (Homo sapiens (Human), UniProt P14867+Q8N1C3); assay: Radioligand binding assay, competition for [3H]RO7239181, γ1-containing GABAA subtype α1β2γ1; conditions: membranes of HEK293F cells, [3H]RO7239181 20-30 nM, mean of two determinations
Description: The affinity of compounds at GABAA γ1 subunit-containing receptors was measured by competition for [^3H]RO7239181 (67.3 Ci/mmol; Roche) binding to membranes from HEK293F cells (ThermoFisher R^79007) expressing human (transiently transfected) receptors of composition α5β2γ1, α2β2γ1, α1β2γ1.
Harvested pellets from HEK293F cells expressing the different GABAA receptor subtypes were resuspended in Mannitol Buffer pH 7.2-7.4 (Mannitol 0.29M, Triethylamine 10 mM, Acetic acid 10 mM, EDTA 1 mM plus protease inhibitors (20 tablets Complete, Roche Diagnostics Cat. No. 05 056 489 001 per liter)), washed two times and then resuspended at 1:10 to 1:15 dilution in the same buffer. Cell disruption was performed by stirring the suspension in a Parr vessel #4637 at 435 psi for 15 minutes, and then the suspensions were centrifuged at 1000×g for 15 minutes at 4° C. (Beckman Avanti J-HC: rotor JS-4.2). The supernatant (S1) was transferred in a 21 Schott flask and the pellet (P1) was resuspended with Mannitol Buffer up to 175 ml. The resuspended pellet was transferred into a 250 ml Corning centrifugal beaker and centrifuged at 1500×g for 10 minutes at 4° C. (Beckman Avanti J-HC: rotor JS-4.2). The supernatant (S1) was then transferred in the 21 Schott flask and the pellet was discarded. The supernatants (S1) were centrifuged in 500 ml Beckman polypropylene centrifugal beaker at 15 000×g for 30 minutes at 4° C. (Beckman Avanti J-20 XP: rotor JLA-10.500). The pellet (P2) was resuspended with Mannitol Buffer 1:1 and frozen at −80° C. The supernatant (S2) was centrifuged in 100 ml Beckman polypropylene centrifugal tubes at 48000×g for 50 minutes at 4° C. (Beckman Avanti J-20 XP: rotor JA-18). The supernatant (S3) was discarded and the pellet (P3) was resuspended with 1:1 Mannitol Buffer. The P2 and P3 protein concentration was determined with the BIORAD Standard assay method with bovine serum albumin as standard and measured on the NANO-Drop 1000. The membrane suspension was aliquots (500 μl per tube) and stored at −80° C. until required.
Membrane homogenates were resuspended and polytronised (Polytron PT1200E Kinematica AG) in Potassium Phosphate 10 mM, KCl 100 mM binding buffer at pH 7.4 to a final assay concentration determined with a previous experiment.
Assays were incubated to equilibrium for 1 hour at 4° C. and then, membranes were filtered onto unifilter (96-well white microplate with bonded GF/C filters preincubated 20-50 minutes in 0.3% Polyethylenimine) with a Filtermate 196 harvester (Packard BioScience) and washed 4 times with cold Potassium Phosphate 10 mM pH 7.4, KCl 100 mM binding buffer. After anhydrousing, filter-retained radioactivity was detected by liquid scintillation counting. Ki values were calculated using Excel-Fit (Microsoft) and are the means of two determinations.

[2] = molecular target: human GABAA α2β2γ1 receptor (Homo sapiens (Human), UniProt P47869+Q8N1C3); assay: Radioligand binding assay, competition for [3H]RO7239181, γ1-containing GABAA subtype α2β2γ1; conditions: for γ2/γ1 Selectivity Ratio: Ki α1β3γ2 (nM)/Ki α2β2γ1 (nM); for LogSel: Log[Ki α1β3γ2 (nM)/Ki α2β2γ1 (nM)]
[3] = molecular target: human GABAA α1β3γ2 receptor (Homo sapiens (Human), UniProt P14867+P18507); assay: Radioligand binding assay, competition for [3H]Flumazenil, γ2-containing GABAA subtype α1β3γ2
[4] = read-out: Ki h-GABAA α2β2γ1, Table 2, membranes of HEK293F cells, [3H]RO7239181

| SMILES | Ki [1] [nM] | Ki [2] [nM] | γ2/γ1 Selectivity Ratio [2] | LogSel [2] | Ki [2, 4] [nM] | Ki [3] [nM] |
| --- | --- | --- | --- | --- | --- | --- |
| O=c1ccn2c(n1)CN=C(c1ncccc1F)c1c-2ccc(Cl)c1Cl [Example 3, 8,9-dichloro-7-(3-fluoro-2-pyridyl)-5H-pyrimido[1,2-a][1,4]benzodiazepin-3-one] | 183 | 112 | 19.6 | 1.29 | 112 | 2190 |
| O=c1ccn2c(n1)CN=C(c1ccccc1F)c1c-2ccc(Cl)c1Cl [Example 1, 8,9-dichloro-7-(2-fluorophenyl)-5H-pyrimido[1,2-a][1,4]benzodiazepin-3-one] | 63.4 | 57.9 | 12.4 | 1.09 | 57.9 | 716 |
